Test results as given in PubChem BioAssay AID1259407 (Chemical Carcinogenesis Research Information System (CCRIS), 2018).
Calls of active or inactive are those of the source. How the calls were made is not given here.

System: CCRIS mutagenicity, Ames/micronucleus/aberration tests
Experiment: CCRIS mutagenicity studies
Conditions: Method: PREINCUBATION

Measured: mutagenic call

CC1CCc2c(N3CCC(O)CC3)c(F)cc3c(=O)c(C(=O)O)cn1c23 (configuration not stated)
inactive: Test System: AMES SALMONELLA TYPHIMURIUM, Strain/Indicator: TA98, Metabolic Activation: NONE inactive; negative | Test System: AMES SALMONELLA TYPHIMURIUM, Strain/Indicator: TA98, Metabolic Activation: RAT, LIVER, S-9, NADPH inactive; negative | Test System: AMES SALMONELLA TYPHIMURIUM, Strain/Indicator: TA100, Metabolic Activation: NONE inactive; negative | Test System: AMES SALMONELLA TYPHIMURIUM, Strain/Indicator: TA100, Metabolic Activation: RAT, LIVER, S-9, NADPH inactive; negative | Test System: AMES SALMONELLA TYPHIMURIUM, Strain/Indicator: TA1535, Metabolic Activation: NONE inactive; negative | Test System: AMES SALMONELLA TYPHIMURIUM, Strain/Indicator: TA1535, Metabolic Activation: RAT, LIVER, S-9, NADPH inactive; negative | Test System: AMES SALMONELLA TYPHIMURIUM, Strain/Indicator: TA1537, Metabolic Activation: NONE inactive; negative | Test System: AMES SALMONELLA TYPHIMURIUM, Strain/Indicator: TA1537, Metabolic Activation: RAT, LIVER, S-9, NADPH inactive; negative | Test System: AMES SALMONELLA TYPHIMURIUM, Strain/Indicator: TA1538, Metabolic Activation: NONE inactive; negative | Test System: AMES SALMONELLA TYPHIMURIUM, Strain/Indicator: TA1538, Metabolic Activation: RAT, LIVER, S-9, NADPH inactive; negative | Test System: E. COLI, Strain/Indicator: WP2 UVRA, Metabolic Activation: RAT, LIVER, S-9, NADPH inactive; negative | Test System: E.COLI, Strain/Indicator: WP2 UVRA, Metabolic Activation: NONE inactive; negative
